The source made the active and inactive calls.
Tests used:
cells [1] = type: functional, cell-based
cells [2] = type: functional, cell-based; remark: listed apart in the source
Cytochrome P450 2C9 = Cytochrome P450 2C9 (Homo sapiens, UniProt P11712)
Caspase-6 = target: T1, Caspase-6 (Homo sapiens, UniProt P55212); assay: inhibition of CASP6 peptide cleavage – biochemical, VEID-R110 fluorescence, cherry-pick, dose response (AID 720632)
T1 sequence (P55212 whole entry): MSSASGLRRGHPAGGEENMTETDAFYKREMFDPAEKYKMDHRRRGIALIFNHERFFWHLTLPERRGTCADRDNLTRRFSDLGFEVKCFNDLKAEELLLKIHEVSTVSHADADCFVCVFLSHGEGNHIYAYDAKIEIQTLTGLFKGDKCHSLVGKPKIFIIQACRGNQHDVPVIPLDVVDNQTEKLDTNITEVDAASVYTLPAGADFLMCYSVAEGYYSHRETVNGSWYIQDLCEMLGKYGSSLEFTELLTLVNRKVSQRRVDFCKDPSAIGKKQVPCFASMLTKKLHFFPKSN

[3] = HEK-293T cell viability reduction – luminescence, B-cell screen hits, cytotoxicity control for BCR NF-kB inhibitor project, dose response (AID 489021); type: functional, cell-based;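 also: HEK-293T cells carrying an NF-kB luciferase reporter; cells exposed to compound for about 14 hours before viability readout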
[4] = target: T2, Mannose-6-phosphate isomerase (Homo sapiens, UniProt P34949); assay: MPI inhibition at elevated mannose 6-phosphate – biochemical, fluorescence intensity, high mannose 6-phosphate, primary screen (AID 1220)
T2 sequence (P34949 whole entry): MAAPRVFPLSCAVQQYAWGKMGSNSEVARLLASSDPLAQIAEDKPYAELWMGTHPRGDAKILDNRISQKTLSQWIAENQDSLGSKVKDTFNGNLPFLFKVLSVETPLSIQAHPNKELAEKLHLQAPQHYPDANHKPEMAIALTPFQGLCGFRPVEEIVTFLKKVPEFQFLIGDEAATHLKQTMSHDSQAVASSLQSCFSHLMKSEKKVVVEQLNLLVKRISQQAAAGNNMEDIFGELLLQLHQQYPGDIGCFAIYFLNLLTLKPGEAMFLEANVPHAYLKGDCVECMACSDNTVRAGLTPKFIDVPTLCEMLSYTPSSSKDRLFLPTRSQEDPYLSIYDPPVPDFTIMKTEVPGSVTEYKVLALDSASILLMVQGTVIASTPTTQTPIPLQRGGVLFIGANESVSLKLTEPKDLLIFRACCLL

cells [5] = type: functional
Cytochrome P450 3A4 = Cytochrome P450 3A4 (Homo sapiens, UniProt P08684);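 also: CYP3A4 tested as one member of a cytochrome P450 panel screen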
Cytochrome P450 1A2 = target: T3, Cytochrome P450 1A2 (Homo sapiens, UniProt P05177);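 also: PubChem cytochrome P450 panel assay, CYP1A2 panel member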
T3 sequence (P05177 whole entry): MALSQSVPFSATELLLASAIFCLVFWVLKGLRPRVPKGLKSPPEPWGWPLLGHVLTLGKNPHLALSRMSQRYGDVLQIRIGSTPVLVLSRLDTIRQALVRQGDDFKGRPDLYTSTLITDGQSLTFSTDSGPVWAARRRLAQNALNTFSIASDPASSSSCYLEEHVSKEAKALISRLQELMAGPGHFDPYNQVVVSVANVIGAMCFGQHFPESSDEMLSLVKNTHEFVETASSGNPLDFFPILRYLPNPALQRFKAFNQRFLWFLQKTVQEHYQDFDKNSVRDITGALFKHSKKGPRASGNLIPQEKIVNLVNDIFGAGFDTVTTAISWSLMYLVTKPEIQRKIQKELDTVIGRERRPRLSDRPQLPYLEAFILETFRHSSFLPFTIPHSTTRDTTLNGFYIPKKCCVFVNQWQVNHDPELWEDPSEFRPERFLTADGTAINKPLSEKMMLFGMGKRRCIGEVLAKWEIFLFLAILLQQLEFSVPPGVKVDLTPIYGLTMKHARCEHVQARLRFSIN

[6] = target: T4, Corticotropin-releasing factor receptor 2/Corticotropin-releasing factor-binding protein (Homo sapiens, UniProt P24387+Q13324); assay: Dose Response confirmation of uHTS hits for small molecule antagonists of the CRF-binding protein and CRF-R2 receptor complex.; type: functional; conditions: read-out: IC50_Mean
T4 sequence (Q13324 whole entry): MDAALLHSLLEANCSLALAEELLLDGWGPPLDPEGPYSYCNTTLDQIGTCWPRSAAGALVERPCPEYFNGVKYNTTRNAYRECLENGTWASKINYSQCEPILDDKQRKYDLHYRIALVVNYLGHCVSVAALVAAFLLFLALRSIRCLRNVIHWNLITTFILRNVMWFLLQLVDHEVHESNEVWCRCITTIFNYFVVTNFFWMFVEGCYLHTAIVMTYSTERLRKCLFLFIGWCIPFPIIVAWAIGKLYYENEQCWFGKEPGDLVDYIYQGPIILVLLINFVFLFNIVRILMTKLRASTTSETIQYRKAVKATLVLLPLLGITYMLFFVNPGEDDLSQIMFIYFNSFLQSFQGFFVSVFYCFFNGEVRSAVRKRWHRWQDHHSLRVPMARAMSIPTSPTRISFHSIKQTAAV
T4 sequence (P24387 whole entry): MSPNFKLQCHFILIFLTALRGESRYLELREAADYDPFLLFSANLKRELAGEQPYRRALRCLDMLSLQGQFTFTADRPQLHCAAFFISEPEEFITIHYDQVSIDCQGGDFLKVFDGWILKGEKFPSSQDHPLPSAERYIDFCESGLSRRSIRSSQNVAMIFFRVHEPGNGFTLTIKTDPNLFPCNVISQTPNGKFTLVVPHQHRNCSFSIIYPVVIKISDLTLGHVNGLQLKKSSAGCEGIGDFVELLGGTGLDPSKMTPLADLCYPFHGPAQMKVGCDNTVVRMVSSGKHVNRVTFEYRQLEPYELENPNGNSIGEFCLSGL

[7] = blockers of CRF-binding protein–CRF-R2 complex – cell-based, uHTS hits, 384-well, dose response (AID 651639); type: functional, Homo sapiens; conditions: read-out: IC50_Mean
[8] = target: T4, Corticotropin-releasing factor receptor 2/Corticotropin-releasing factor-binding protein; assay: activators of CRF receptor 2 with binding protein – uHTS hits, confirmation (AID 602473); type: functional; conditions: read-out: EC50_Mean
cells [9] = type: functional, cell-based; remark: listed apart in the source
[10] = target: T5, Apoptotic protease-activating factor 1 (Homo sapiens, UniProt O14727); type: functional
T5 sequence (O14727 whole entry): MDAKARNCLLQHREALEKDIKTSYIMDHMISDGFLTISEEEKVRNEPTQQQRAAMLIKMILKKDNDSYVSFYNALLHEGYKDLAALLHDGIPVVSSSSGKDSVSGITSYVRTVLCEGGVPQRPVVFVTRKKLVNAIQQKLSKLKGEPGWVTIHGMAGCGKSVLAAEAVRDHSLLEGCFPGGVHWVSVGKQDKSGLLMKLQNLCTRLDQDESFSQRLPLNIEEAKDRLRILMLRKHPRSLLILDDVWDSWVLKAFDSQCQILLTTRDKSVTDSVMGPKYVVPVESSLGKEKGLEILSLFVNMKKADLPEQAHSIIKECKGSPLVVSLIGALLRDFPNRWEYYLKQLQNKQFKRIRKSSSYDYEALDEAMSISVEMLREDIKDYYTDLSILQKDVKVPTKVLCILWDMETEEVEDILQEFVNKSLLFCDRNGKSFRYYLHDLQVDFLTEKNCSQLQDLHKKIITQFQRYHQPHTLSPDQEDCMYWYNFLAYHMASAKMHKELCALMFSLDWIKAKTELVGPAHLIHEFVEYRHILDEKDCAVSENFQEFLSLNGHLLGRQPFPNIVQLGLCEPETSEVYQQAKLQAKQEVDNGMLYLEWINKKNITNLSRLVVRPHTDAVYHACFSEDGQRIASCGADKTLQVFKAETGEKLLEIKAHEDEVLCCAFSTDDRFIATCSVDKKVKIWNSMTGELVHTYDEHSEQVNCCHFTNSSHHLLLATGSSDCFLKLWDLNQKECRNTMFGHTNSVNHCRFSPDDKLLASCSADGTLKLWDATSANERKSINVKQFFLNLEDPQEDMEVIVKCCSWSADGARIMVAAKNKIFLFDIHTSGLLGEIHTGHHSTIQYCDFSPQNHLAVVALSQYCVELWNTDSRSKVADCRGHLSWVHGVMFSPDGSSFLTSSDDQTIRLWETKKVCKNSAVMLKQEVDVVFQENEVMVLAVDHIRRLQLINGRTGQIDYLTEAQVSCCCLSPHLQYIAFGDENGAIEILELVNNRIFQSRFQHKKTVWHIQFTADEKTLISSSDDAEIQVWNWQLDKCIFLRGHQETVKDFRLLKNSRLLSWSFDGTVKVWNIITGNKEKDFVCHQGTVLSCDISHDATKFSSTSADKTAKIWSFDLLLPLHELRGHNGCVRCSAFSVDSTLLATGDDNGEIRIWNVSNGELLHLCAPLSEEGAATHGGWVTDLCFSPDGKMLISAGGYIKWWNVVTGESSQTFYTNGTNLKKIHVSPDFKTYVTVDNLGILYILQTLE

cells [11] = type: functional, cell-based; remark: listed apart in the source
[12] = target: T6, Zinc finger protein mex-5 (Caenorhabditis elegans, UniProt Q9XUB2); assay: potency of MEX-5 RNA-binding blockers – biochemical, C. elegans, fluorescence polarization, dose response (AID 1960)
T6 sequence (Q9XUB2 whole entry): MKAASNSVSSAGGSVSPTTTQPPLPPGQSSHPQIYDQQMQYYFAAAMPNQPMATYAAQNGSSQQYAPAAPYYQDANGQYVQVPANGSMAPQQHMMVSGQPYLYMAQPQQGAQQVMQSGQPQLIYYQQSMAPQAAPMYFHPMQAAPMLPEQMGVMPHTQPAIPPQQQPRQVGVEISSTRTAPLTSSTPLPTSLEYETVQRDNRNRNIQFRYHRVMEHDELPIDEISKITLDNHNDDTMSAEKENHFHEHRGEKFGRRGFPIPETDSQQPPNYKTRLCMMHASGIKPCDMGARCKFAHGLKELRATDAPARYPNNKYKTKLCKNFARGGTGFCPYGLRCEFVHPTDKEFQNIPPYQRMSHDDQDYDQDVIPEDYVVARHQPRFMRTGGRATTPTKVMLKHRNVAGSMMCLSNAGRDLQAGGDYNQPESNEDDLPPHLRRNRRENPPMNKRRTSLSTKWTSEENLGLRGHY

[13] = target: T7, RNA-binding protein pos-1 (Caenorhabditis elegans, UniProt G5EF15); assay: disruptors of C. elegans POS-1 RNA interaction – biochemical, fluorescence polarization, dose response (AID 1964);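 also: purified POS-1 fused to maltose binding protein made in E. coli; potency of compounds blocking POS-1 binding to fluorescent RNA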
T7 sequence (G5EF15 whole entry): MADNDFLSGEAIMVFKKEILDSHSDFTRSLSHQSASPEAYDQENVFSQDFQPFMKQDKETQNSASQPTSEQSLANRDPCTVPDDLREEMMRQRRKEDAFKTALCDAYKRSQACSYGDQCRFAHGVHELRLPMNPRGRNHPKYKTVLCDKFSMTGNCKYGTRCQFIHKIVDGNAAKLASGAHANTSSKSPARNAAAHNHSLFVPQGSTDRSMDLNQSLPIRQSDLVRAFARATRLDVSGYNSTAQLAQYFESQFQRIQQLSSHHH

Sequence of Cytochrome P450 2C9 (P11712 whole entry): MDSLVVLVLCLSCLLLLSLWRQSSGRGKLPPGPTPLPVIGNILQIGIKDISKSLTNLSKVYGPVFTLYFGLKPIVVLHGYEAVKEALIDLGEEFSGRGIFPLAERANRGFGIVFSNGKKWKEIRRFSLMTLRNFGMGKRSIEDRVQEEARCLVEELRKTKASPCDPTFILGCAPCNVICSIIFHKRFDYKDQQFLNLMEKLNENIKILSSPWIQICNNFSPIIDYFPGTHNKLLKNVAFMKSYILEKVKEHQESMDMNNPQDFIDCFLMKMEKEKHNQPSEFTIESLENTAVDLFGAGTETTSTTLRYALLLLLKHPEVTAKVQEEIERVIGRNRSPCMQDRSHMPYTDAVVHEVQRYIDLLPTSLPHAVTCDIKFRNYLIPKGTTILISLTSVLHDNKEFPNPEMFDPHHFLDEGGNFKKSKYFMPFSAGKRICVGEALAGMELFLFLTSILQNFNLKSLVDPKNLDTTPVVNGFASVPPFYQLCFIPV
Sequence of Cytochrome P450 3A4 (P08684 whole entry): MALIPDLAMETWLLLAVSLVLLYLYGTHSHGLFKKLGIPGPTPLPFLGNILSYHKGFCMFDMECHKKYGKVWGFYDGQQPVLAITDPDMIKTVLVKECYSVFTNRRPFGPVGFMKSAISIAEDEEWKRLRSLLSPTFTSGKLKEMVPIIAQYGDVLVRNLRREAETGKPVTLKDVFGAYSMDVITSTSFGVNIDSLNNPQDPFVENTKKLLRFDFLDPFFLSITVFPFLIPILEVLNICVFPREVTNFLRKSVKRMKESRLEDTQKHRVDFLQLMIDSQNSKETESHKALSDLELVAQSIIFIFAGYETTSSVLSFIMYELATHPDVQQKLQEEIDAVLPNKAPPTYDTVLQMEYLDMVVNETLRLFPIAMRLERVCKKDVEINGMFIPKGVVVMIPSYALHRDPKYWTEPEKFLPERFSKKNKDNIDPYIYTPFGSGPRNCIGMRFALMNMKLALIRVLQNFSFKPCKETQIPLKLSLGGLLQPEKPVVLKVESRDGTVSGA

O=C(COc1ccc(F)cc1)NNC(=O)c1cc2ccccc2oc1=O
IC50 (cells [1]): > 29.9 µM (inactive)
EC50 (cells [2]): > 29.9 µM (inactive)

CCN(CC(=O)NCc1cccs1)S(=O)(=O)c1ccc(C(C)C)cc1
AC50 (Cytochrome P450 2C9): inconclusive

C[C@H](O)[C@@H]1C(=O)N2CCc3c([nH]c4ccccc34)[C@@H]2C[C@@H]1N(C)C(=O)Nc1cccc2ccccc12
AC50 (Caspase-6): 35.9 µM (active)

CN1C(=O)CSc2ccc(NC(=O)N3CCN(c4ccccc4)CC3)cc21
IC50 [3]: > 80 µM (inactive)

O=C(CSc1ccc(-c2ccccn2)nn1)c1ccc(F)cc1
IC50 [4]: > 50 µM (not active)

CC(=C1C(=O)c2ccccc2C1=O)N1CCc2ccccc2C1
IC50 (cells [1]): > 29.9 µM (inactive)
EC50 (cells [2]): > 29.9 µM (inactive)

O=C(OCn1nnc2ccccc2c1=O)c1ccc(N2CCOCC2)c([N+](=O)[O-])c1
IC50 (cells [5]): 10 µM (active)

O=C(NCc1ccccc1)c1ccc(Cl)cc1[N+](=O)[O-]
AC50 (Cytochrome P450 3A4): 22.4 µM (inconclusive)
AC50 (Cytochrome P450 1A2): 20 µM (inconclusive)
AC50 (Cytochrome P450 2C9): inconclusive

CCCCNS(=O)(=O)c1cc(-c2nn(C)c(=O)c3ccccc23)ccc1C
AC50 (Caspase-6): 21.3 µM (active)

COc1c(NC(C)=O)c2ccccc2c2ccccc12
AC50 (Cytochrome P450 2C9): inconclusive

Cc1nc2c(C(=O)NCCc3ccccc3)cnn2c(O)c1Cl
IC50 [6]: 44.5 µM (active)
IC50 [7]: > 20 µM (inactive)
IC50 [4]: > 50 µM (not active)
EC50 [8]: > 53 µM (inactive)

Cc1ccc2c(c1)c1c3n2CCN=C3CCC1
IC50 (cells [5]): 11.9 µM (active)

Oc1ccc(/C=N/CC2COc3ccccc3O2)cc1 (stereo not given)
IC50 (cells [1]): > 29.9 µM (inactive)
EC50 (cells [2]): > 29.9 µM (inactive)

CC(=O)c1ccc(NC(=O)c2cc(CC(C)C)on2)cc1
IC50 (cells [5]): 12 µM (active)

Cc1ccc(-n2cc(C(=O)c3ccc4ccccc4c3O)cn2)cc1
AC50 (Cytochrome P450 1A2): 1.41 µM (inconclusive)
AC50 (Cytochrome P450 2C9): inconclusive

CC1CCN(S(=O)(=O)c2ccc3c4c2CC(=O)N4CC(C)S3)CC1 (stereo not given)
EC50 (cells [9]): > 350 µM (not active)
IC50 [10]: 3.64 µM (active)
EC50 (cells [11]): > 350 µM (not active)

O=C(Nc1ccccc1F)c1coc(=O)c(Br)c1
AC50 (Caspase-6): 23.8 µM (active)
EC50 [12]: > 300 µM (not active)
EC50 [13]: > 300 µM (not active)

Reference: ChEMBL document CHEMBL1201862, “PubChem BioAssay data set” (2004)
